{"source": "paper PMC8241576", "about": "(Biophysical Journal, 2021)", "origin": "cited, not measured here", "conditions": "in water at 25°C", "data": [{"smiles": "Cl.N=c1ccc2c(-c3ccccc3C(=O)O)c3ccc(N)cc3oc-2c1", "note": "[Rh110, Rhodamine 110]", "values": [{"measurement": "diffusion coefficient", "value": "4.4 × 10^−6 cm^2 s^−1"}, {"measurement": "hydrodynamic radius of free dye", "value": "~0.56", "unit": "nm"}]}]}
